Patent publication US4308259A, “Penicillin derivatives” (Beecham Group Limited, priority 1979, dated 1981)
Counter-ions that a name gives are not always drawn. Like-named read-outs stand apart in the source and are kept apart here.

Key:
Type in all cases: cell-based
E. coli JT 4 = test: MIC (antibacterial activity) against E. coli JT 4; details: Escherichia coli, JT4
E. coli JT 425 = test: MIC against E. coli JT 425; details: Escherichia coli, JT425
E. coli NCTC 10418 = test: MIC against E. coli NCTC 10418; details: Escherichia coli, NCTC10418
[1] = test system: Ps. aeruginosa NCTC 10662; test: MIC against Ps. aeruginosa NCTC 10662
Ps. aeruginosa Dalgleish = test: MIC against Ps. aeruginosa Dalgleish; details: Pseudomonas aeruginosa; Ps. aeruginosa Dalgleish 10^-2
S. marcescens US 32 = test: MIC against S. marcescens US 32; details: Serratia marcescens, US32
K. aerogenes A = test: MIC against K. aerogenes A; details: Klebsiella aerogenes
E. cloacae N1 = test: MIC against E. cloacae N1; details: Enterobacter cloacae
P. mirabilis C 977 = test: MIC against P. mirabilis C 977; details: Proteus mirabilis, C977
P. mirabilis 889 = test: MIC against P. mirabilis 889; details: Proteus mirabilis
P. morganii = test: MIC against P. morganii; details: Morganella morganii
P. rettgeri = test: MIC against P. rettgeri; details: Providencia rettgeri
B. subtilis = test: MIC against B. subtilis; details: Bacillus subtilis
S. aureus Oxford = test: MIC against S. aureus Oxford; details: Staphylococcus aureus
S. aureus Russell = test: MIC against S. aureus Russell; details: Staphylococcus aureus
S. faecalis I = test: MIC against S. faecalis I; details: Enterococcus faecalis
S. pyogenes CN 10 = test: MIC against S. pyogenes CN 10; details: Streptococcus pyogenes, CN10
N. catarrhalis 1502 = test: MIC against N. catarrhalis 1502
[2] = Pseudomonas aeruginosa, NCTC10662, Ps. aeruginosa NCTC 10662 10^-2, read-out: MIC
[3] = Pseudomonas aeruginosa, NCTC10662, Ps. aeruginosa NCTC 10662, read-out: MIC

SMILES | MIC (E. coli JT 4) [µg/mL] | MIC (E. coli JT 425; E. coli JT 425, read-out: MIC) [µg/mL] | MIC (E. coli NCTC 10418) [µg/mL] | MIC [1, 2] [µg/mL] | MIC [1, 3] [µg/mL] | MIC (Ps. aeruginosa Dalgleish) [µg/mL] | MIC (S. marcescens US 32) [µg/mL] | MIC (K. aerogenes A) [µg/mL] | MIC (E. cloacae N1) [µg/mL] | MIC (P. mirabilis C 977) [µg/mL] | MIC (P. mirabilis 889) [µg/mL] | MIC (P. morganii) [µg/mL] | MIC (P. rettgeri; P. rettgeri, read-out: MIC) [µg/mL] | MIC (B. subtilis) [µg/mL] | MIC (S. aureus Oxford) [µg/mL] | MIC (S. aureus Russell) [µg/mL] | MIC (S. faecalis I) [µg/mL] | MIC (S. pyogenes CN 10) [µg/mL] | MIC (N. catarrhalis 1502) [µg/mL] | further results
CO[C@@]1(NC(=O)C(c2ccccc2)S(=O)(=O)O)C(=O)N2[C@@H](C(=O)O)C(C)(C)S[C@@H]21 (stereo partly drawn) [Example 1, Disodium 6,α-methoxy-6,β -(2-phenyl-2-sulphoacetamido) penicillanate] | 25 | 10 | 25 | > 100 | > 100 | 50 | > 100 | 2.5 | 25 | 5 | 5 | 10 | 10 | > 100 | > 100 | > 100 | > 100 | 50 |  | 
CO[C@@]1(NC(=O)C(c2ccc(N)cc2)S(=O)(=O)O)C(=O)N2[C@@H](C(=O)O)C(C)(C)S[C@@H]21 (stereo partly drawn) [Example 4, Disodium 6,β-[2-(4-aminophenyl)-2-sulphoacetamido]-6,α-methoxy-penicillanate] | 10 | 10 | 10 | 25 | 25 | 25 | 25 | 2.5 | 5 | 5 | 10 | 5 | 6 | > 100 | > 100 | > 100 | > 100 | 25 | 0.05 | 
CO[C@@]1(NC(=O)C(c2ccccc2)P(=O)(O)OC)C(=O)N2[C@@H](C(=O)O)C(C)(C)S[C@@H]21 (stereo partly drawn) [Example 6, 6,α-Methoxy-6,β-(2-O-methylphosphono-2-phenylacetamido)penicillanic acid disodium salt] | 125 |  | 50 |  | 500 | 250 | 125 | 12.5 | 12.5 | 25 | 50 | 50 |  | > 500 | > 500 | > 500 | > 500 | > 500 | 0.5 | MIC (E. coli JT 425): 50 µg/mL; MIC ([1]; Ps. aeruginosa NCTC 10662 10^-2): 500 µg/mL; MIC (P. rettgeri): 12.5 µg/mL
CO[C@@]1(NC(=O)C(c2ccc(O)cc2)S(=O)(=O)O)C(=O)N2[C@@H](C(=O)O)C(C)(C)S[C@@H]21 (stereo partly drawn) [Example 8, Disodium 6,β-[2-(4-hydroxyphenyl)-2-sulphoacetamido]-6,α-methoxypenicillanate] | 25 | 25 | 25 | 50 | 50 | 25 | 100 | 10 | 10 | 25 | 25 | 25 | 10 | > 100 | > 100 | > 100 | > 100 | 25 | 0.2 | 
CO[C@@]1(NC(=O)C(c2ccccc2F)S(=O)(=O)O)C(=O)N2[C@@H](C(=O)O)C(C)(C)S[C@@H]21 (stereo partly drawn) [Example 9, Disodium 6,β-[2-(2-fluorophenyl)-2-sulphoacetamido]-6,α-methoxypenicillanate] | 25 | 10 | 10 | 100 | > 100 | 100 | 50 | 2.5 | 2.5 | 5 | 5 | 5 | 5 | 25 | 25 | 50 | > 100 | 5 | < 0.02 | 
